Reference: ChEMBL document CHEMBL5678818, “Discovery of potent SOS1 inhibitors that block RAS activation via disruption of the RAS-SOS1 interaction” (Proc Natl Acad Sci U S A, 2019)

How the values were obtained:
[1] = biological target: Cyclin-dependent kinase 14 (Homo sapiens) (UniProt O94921); assay: Inhibition of PFTK1 (unknown origin) assessed as residual activity at 1000 nM by KINOMEscan analysis relative to control
[2] = biological target: T1, Tyrosine-protein kinase Mer (Homo sapiens) (UniProt Q12866); assay: Inhibition of MERTK (unknown origin) assessed as residual activity at 1000 nM by KINOMEscan analysis relative to control
T1 sequence (whole entry): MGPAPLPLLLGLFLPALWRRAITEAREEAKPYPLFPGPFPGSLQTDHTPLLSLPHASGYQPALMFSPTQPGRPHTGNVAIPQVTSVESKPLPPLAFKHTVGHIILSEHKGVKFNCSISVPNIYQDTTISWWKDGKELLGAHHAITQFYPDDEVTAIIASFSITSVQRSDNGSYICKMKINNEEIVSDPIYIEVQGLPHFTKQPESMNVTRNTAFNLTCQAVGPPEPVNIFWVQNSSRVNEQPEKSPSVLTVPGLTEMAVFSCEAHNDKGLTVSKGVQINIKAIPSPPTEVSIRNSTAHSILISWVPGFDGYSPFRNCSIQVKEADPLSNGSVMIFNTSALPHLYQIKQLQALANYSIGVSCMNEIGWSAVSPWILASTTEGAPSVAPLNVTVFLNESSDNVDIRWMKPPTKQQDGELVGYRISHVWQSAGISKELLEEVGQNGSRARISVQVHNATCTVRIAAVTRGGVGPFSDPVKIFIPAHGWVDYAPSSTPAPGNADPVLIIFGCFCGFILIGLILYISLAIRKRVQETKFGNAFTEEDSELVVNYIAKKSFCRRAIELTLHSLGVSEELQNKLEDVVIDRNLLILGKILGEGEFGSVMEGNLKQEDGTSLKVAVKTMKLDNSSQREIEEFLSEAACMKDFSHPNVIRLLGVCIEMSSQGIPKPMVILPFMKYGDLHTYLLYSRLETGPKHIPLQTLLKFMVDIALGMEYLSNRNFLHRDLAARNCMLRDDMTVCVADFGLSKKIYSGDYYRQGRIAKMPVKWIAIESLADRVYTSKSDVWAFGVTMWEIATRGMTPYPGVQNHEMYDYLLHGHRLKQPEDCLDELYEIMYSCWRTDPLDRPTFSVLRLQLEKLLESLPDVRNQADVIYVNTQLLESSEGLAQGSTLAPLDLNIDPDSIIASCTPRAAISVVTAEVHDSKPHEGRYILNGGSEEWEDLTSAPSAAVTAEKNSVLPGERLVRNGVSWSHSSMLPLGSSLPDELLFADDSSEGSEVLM

[3] = biological target: T2, Serine/threonine-protein kinase ULK1 (Homo sapiens) (UniProt O75385); assay: Inhibition of ULK1 (unknown origin) assessed as residual activity at 1000 nM by KINOMEscan analysis relative to control
T2 sequence (whole entry): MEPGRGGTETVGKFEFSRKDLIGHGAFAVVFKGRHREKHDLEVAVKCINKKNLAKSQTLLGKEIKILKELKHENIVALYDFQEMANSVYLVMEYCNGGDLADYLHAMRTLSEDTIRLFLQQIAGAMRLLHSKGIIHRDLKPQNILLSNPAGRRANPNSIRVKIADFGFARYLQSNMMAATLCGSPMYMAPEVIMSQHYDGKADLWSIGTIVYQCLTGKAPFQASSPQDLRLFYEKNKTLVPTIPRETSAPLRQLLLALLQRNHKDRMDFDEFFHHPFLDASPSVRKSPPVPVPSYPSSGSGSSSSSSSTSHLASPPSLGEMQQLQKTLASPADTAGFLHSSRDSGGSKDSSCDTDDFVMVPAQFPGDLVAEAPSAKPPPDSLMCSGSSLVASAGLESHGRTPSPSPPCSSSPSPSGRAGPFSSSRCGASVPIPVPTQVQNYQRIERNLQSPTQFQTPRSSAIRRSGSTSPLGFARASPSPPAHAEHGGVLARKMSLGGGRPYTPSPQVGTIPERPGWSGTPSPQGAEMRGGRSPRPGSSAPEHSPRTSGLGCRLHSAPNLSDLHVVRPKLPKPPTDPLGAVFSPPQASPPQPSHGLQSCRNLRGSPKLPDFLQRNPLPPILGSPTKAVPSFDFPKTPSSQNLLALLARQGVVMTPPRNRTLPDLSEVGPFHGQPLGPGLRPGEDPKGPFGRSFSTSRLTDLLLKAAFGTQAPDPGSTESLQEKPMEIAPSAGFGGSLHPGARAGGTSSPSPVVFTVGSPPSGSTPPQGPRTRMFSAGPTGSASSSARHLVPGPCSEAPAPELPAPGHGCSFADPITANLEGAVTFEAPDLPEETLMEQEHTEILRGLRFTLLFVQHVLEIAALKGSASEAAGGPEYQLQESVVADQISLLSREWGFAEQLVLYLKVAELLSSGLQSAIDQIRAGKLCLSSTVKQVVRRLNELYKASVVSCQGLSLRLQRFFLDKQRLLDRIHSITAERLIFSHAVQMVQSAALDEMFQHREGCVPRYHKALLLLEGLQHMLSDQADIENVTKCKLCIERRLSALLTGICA

[4] = biological target: Death-associated protein kinase 1 (Homo sapiens) (UniProt P53355); assay: Inhibition of DAPK1 (unknown origin) assessed as residual activity at 1000 nM by KINOMEscan analysis relative to control
[5] = biological target: T3, Serine/threonine-protein kinase BRSK1 (Homo sapiens) (UniProt Q8TDC3); assay: Inhibition of BRSK1 (unknown origin) assessed as residual activity at 1000 nM by KINOMEscan analysis relative to control
T3 sequence (whole entry): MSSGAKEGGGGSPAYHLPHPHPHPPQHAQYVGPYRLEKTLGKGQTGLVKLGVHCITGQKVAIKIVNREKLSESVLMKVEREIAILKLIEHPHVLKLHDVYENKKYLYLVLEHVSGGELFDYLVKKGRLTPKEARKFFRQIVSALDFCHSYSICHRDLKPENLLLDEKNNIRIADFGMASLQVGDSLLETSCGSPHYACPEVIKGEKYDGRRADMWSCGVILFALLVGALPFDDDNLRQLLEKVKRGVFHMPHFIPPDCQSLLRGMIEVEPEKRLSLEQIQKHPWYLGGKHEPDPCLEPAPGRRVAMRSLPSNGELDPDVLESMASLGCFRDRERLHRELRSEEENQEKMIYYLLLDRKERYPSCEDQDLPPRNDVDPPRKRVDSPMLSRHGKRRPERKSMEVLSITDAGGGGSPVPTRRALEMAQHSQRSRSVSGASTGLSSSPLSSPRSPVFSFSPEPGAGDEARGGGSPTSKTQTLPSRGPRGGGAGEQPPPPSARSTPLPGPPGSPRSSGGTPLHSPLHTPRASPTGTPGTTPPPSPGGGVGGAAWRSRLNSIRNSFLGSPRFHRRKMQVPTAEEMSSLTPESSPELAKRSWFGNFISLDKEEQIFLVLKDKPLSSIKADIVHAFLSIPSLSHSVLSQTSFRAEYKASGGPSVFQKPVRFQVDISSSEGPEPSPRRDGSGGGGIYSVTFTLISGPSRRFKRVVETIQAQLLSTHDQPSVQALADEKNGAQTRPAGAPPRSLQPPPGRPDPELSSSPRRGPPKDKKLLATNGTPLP

Chain of Cyclin-dependent kinase 14 (Homo sapiens) (O94921 whole entry): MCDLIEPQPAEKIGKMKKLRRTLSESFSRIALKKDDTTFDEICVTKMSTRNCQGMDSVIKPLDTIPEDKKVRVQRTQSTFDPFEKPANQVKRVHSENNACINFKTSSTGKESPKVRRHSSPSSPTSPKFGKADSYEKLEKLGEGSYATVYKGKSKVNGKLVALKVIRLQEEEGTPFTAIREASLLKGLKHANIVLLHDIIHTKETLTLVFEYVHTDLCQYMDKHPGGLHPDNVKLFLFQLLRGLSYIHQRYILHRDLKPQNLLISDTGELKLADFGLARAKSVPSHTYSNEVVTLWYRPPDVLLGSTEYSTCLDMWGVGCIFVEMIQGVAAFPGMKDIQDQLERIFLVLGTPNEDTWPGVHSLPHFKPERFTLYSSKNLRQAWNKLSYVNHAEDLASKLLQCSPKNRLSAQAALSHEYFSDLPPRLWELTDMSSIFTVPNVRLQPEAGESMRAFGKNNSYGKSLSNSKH
Chain of Death-associated protein kinase 1 (Homo sapiens) (P53355 whole entry, looked up): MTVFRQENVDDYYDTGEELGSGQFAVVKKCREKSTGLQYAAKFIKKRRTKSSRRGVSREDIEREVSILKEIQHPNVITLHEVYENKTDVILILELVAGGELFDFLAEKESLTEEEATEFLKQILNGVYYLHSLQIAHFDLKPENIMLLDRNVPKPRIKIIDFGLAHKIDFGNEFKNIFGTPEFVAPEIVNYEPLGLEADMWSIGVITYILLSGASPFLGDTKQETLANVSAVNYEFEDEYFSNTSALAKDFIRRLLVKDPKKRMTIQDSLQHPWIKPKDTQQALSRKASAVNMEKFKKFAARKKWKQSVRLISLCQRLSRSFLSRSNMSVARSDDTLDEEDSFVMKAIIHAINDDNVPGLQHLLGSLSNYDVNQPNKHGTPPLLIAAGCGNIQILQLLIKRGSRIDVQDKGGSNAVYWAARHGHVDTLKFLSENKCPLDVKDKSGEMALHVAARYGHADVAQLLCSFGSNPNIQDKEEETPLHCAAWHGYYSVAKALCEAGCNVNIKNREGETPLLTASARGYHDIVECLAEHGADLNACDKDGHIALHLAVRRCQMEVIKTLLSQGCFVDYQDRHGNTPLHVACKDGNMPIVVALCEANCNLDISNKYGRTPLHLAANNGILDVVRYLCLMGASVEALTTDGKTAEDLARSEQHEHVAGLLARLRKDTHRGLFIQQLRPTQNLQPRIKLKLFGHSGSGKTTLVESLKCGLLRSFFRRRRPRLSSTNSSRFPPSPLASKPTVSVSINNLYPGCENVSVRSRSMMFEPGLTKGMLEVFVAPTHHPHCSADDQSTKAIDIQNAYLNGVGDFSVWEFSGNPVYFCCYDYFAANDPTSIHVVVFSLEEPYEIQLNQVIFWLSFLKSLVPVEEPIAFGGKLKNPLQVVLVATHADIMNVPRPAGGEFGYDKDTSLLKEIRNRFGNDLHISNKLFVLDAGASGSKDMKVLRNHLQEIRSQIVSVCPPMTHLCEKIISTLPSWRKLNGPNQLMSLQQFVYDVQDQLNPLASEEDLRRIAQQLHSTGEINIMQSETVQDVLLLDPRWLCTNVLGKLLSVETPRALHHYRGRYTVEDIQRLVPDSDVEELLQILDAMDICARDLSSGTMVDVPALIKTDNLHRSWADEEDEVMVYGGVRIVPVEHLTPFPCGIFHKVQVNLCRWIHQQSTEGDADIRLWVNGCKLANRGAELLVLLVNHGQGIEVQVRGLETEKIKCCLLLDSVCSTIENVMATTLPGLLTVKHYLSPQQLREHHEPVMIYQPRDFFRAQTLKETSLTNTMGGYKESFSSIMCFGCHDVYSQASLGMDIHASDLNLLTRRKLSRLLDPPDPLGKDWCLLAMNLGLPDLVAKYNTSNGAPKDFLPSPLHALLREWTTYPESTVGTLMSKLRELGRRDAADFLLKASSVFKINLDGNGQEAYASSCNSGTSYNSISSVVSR

Structure (SMILES): COc1cc2nc(C)nc(N[C@H](C)c3cccc(-c4cn[nH]c4)c3)c2cc1OC
- Activity [1]: 93%
- Activity [2]: 55%
- Activity [3]: 97%
- Activity [4]: 82%
- Activity [5]: 100%

Structure (SMILES): COc1cc2ncnc(N[C@H](C)c3cccc4ccccc34)c2cc1OC
- Activity [1]: 100%
- Activity [2]: 96%
- Activity [3]: 87%
- Activity [4]: 100%
- Activity [5]: 100%
